US20140294967A1, “STABLE NANOCOMPOSITION COMPRISING PACLITAXEL, PROCESS FOR THE PREPARATION THEREOF, ITS USE AND PHARMACEUTICAL COMPOSITIONS CONTAINING IT” (BBS Nanotechnology Llc., priority 2013, published 2014)

Experiments:
[1] = test system: SK-OV-3 human ovary adenocarcinoma cells; assay: comparative efficacy study in SK-OV-3 s.c. xenograft SCID mouse model of ovary cancer; type: in vivo, SCID mice; settings: 5 mg/kg
Description: (§1) The table above illustrates the comparative efficacy study in SK-OV-3 s.c. xenograft SCID mouse model of ovary cancer. Tumor was induced in mice by implanting SK-OV-3 human ovary adenocarcinoma cells s.c. in upper region of back of SCID mice and allowing the tumors to develop to appreciable size over 24 days (70 mm3). The comparative efficacy study of six i.v. injection (day 24, 31, 38, 44, 51 and 58) of 5% glucose, paclitaxel (PACL) 5 mg/kg, NP-PACL 5 mg/kg and NP-PACL-OCT 1.7 mg/kg) was evaluated over 72 days. In this table there are: change in tumor volume of mice on 62nd day after tumor inoculation (data represent mean %±SEM of five mice per group), change in body weight of mice on 62nd day after tumor inoculation (Data represent mean±STDEV of five mice per group) and survival proportion at the end of the experiment.

[2] = body weight of mice during the SK-OV-3 xenograft efficacy study; type: in vivo, SCID mice; settings: 5 mg/kg, six i.v. injections; 62nd day after tumor inoculation; mean ± STDEV of five mice
Description: as §1

For `CC(=O)O[C@H]1C(=O)[C@@]2(C)[C@H]([C@H](OC(=O)c3ccccc3)[C@]3(O)C[C@H](OC(=O)[C@H](O)[C@@H](NC(=O)c4ccccc4)c4ccccc4)C(C)=C1C3(C)C)[C@]1(OC(C)=O)CO[C@@H]1C[C@@H]2O` [PACL, (2α,4α,5β,7β,10β,13α)-4,10-bis(acetyloxy)-13-{[(2R,3S)-3-(benzoylamino)-2-hydroxy-3-phenylpropanoyl]oxy}-1,7-dihydroxy-9-oxo-5,20-epoxytax-11-en-2-yl benzoate], the “Change in tumor volume (control: 100%)” value ([1]; six i.v. injections (day 24, 31, 38, 44, 51, 58), 62nd day after tumor inoculation, mean % ± SEM of five mice) was 86% ± 13%, the “Survival proportion at the end of the experiment” value ([1]; six i.v. injections, evaluated over 72 days, five mice per group) was 60% and the “Change in body weight during the treatment (weight at start: 100%)” value [2] was 99% ± 5%.
